Biological target: T1, mTOR (Homo sapiens, UniProt P42345)
T1 construct: mTOR protein was isolated from HeLa cell cytoplasmic extract by immunoprecipitation; endogenous in cells; host or cells: HeLa cell cytoplasmic extract (immunoprecipitate)
Experiment: Biological Assay: mTOR enzyme activity, mTOR immunoprecipitated from HeLa cell cytoplasmic extract, recombinant PHAS-1 as substrate
Type: biochemical
Conditions: Biological Assay, upper bounds; read-out: IC50 values against mTOR
Text: For mTOR enzyme activity assays, mTOR protein was isolated from HeLa cell cytoplasmic extract by immunoprecipitation, and activity determined essentially as described previously using recombinant PHAS-1 as a substrate (ref. 21).

| SMILES | IC50 |
| --- | --- |
| COC(=O)c1ccc(Nc2ccc3c(N4CCOCC4)nc(N4C[C@@H](C)O[C@@H](C)C4)nc3n2)cc1 [Example 2g] | < 1 µM |
| C[C@@H]1CN(c2nc(N3CCOCC3)c3ccc(Nc4ccc(C#N)cc4)nc3n2)C[C@H](C)O1 [Example 2h] | < 1 µM |
| C[C@H]1CCCCN1c1nc(N2CCOCC2)c2ccc(Nc3ccccc3)nc2n1 [Example 2i] | < 1 µM |
| Cc1ccc(Nc2ccc3c(N4CCOCC4)nc(N4C[C@@H](C)O[C@@H](C)C4)nc3n2)cc1 [Example 2j] | < 1 µM |
| C[C@@H]1CN(c2nc(N3CCOCC3)c3ccc(Nc4ccc(Cl)cc4)nc3n2)C[C@H](C)O1 [Example 2k] | < 1 µM |
| Cc1cc([N+](=O)[O-])cc(Cl)c1Nc1ccc2c(N3CCOCC3)nc(N3C[C@@H](C)O[C@@H](C)C3)nc2n1 [Example 2l] | < 10 µM |
| C[C@@H]1CN(c2nc(N3CCOCC3)c3ccc(Nc4cccc(C(=O)c5ccccc5)c4)nc3n2)C[C@H](C)O1 [Example 2m] | < 10 µM |
| CC(C)c1cccc(Nc2ccc3c(N4CCOCC4)nc(N4C[C@@H](C)O[C@@H](C)C4)nc3n2)c1 [Example 2n] | < 1 µM |
| C[C@@H]1CN(c2nc(N3CCOCC3)c3ccc(Nc4cccc5cccnc45)nc3n2)C[C@H](C)O1 [Example 2o] | < 10 µM |
| COc1ccc(/C=C/c2ccc(Nc3ccc4c(N5CCOCC5)nc(N5C[C@@H](C)O[C@@H](C)C5)nc4n3)cc2)cc1 [Example 2p] | < 1 µM |
| C[C@@H]1CN(c2nc(N3CCOCC3)c3ccc(Nc4ccc(-n5cccc5)cc4)nc3n2)C[C@H](C)O1 [Example 2q] | < 1 µM |
| C[C@@H]1CN(c2nc(N3CCOCC3)c3ccc(Nn4cnnc4)nc3n2)C[C@H](C)O1 [Example 2r] | < 10 µM |
| C[C@@H]1CN(c2nc(N3CCOCC3)c3ccc(Nc4nc(-c5ccccc5Cl)cs4)nc3n2)C[C@H](C)O1 [Example 2s] | < 10 µM |
| Cc1cnccc1Nc1ccc2c(N3CCOCC3)nc(N3C[C@@H](C)O[C@@H](C)C3)nc2n1 [Example 2t] | < 1 µM |
| C=C(C)CNc1ccc2c(N3CCOCC3)nc(N3C[C@@H](C)O[C@@H](C)C3)nc2n1 [Example 2v] | < 10 µM |
| C[C@@H]1CN(c2nc(N3CCOCC3)c3ccc(NC4CCN(C)CC4)nc3n2)C[C@H](C)O1 [Example 2w] | < 10 µM |
| Cc1cc(Nc2ccc3c(N4CCOCC4)nc(N4C[C@@H](C)O[C@@H](C)C4)nc3n2)no1 [Example 2x] | < 10 µM |
| Cc1ccc(-n2nc(C)cc2Nc2ccc3c(N4CCOCC4)nc(N4C[C@@H](C)O[C@@H](C)C4)nc3n2)cc1 [Example 2y] | < 10 µM |
| C[C@@H]1CN(c2nc(N3CCOCC3)c3ccc(N)nc3n2)C[C@H](C)O1 [Example 3a] | < 1 µM |
| C[C@H]1CCCCN1c1nc(N2CCOCC2)c2ccc(N)nc2n1 [Example 3b] | < 1 µM |
| CCNC(=O)Nc1ccc2c(N3CCOCC3)nc(N3C[C@@H](C)O[C@@H](C)C3)nc2n1 [Example 4a] | < 10 µM |
| C[C@@H]1CN(c2nc(N3CCOCC3)c3ccc(NC(=O)C4CCCC4)nc3n2)C[C@H](C)O1 [Example 5b] | < 10 µM |
| C/C=C/C(=O)Nc1ccc2c(N3CCOCC3)nc(N3C[C@@H](C)O[C@@H](C)C3)nc2n1 [Example 5c] | < 1 µM |
| C[C@@H]1CN(c2nc(N3CCOCC3)c3ccc(NC(=O)CSc4ccccc4)nc3n2)C[C@H](C)O1 [Example 5d] | < 10 µM |
| C[C@@H]1CN(c2nc(N3CCOCC3)c3ccc(NC(=O)c4cnc5ccccc5n4)nc3n2)C[C@H](C)O1 [Example 5e] | < 10 µM |
| CC(=O)Nc1ccc2c(N3CCOCC3)nc(N3C[C@@H](C)O[C@@H](C)C3)nc2n1 [Example 5f] | < 10 µM |
| C[C@@H]1CN(c2nc(N3CCOCC3)c3ccc(NC(=O)c4nc[nH]c4N)nc3n2)C[C@H](C)O1 [Example 5g] | < 10 µM |
| C[C@@H]1CN(c2nc(N3CCOCC3)c3ccc(NS(C)(=O)=O)nc3n2)C[C@H](C)O1 [Example 6] | < 10 µM |
| CCCCOc1ccc2c(N3CCOCC3)nc(N3C[C@@H](C)O[C@@H](C)C3)nc2n1 [Example 7] | < 10 µM |
| COc1ccc(-c2ccc3c(N4CCOCC4)nc(N4C[C@@H](C)O[C@@H](C)C4)nc3n2)cc1CNCc1cccs1 [Example 8j] | < 0.1 µM |

Tested on: phosphorylation of Serine 473 in Akt in MDA-MB-468 cells
Experiment: In Vitro phospho-Ser473 Akt Assay (Acumen Explorer)
Type: cell-based
Conditions: Homo sapiens, MDA-MB-468, read-out: IC50 values against mTOR (phospho-Ser473 Akt assay)

| SMILES | IC50 |
| --- | --- |
| CNc1nc(N2CCOC[C@@H]2C)c2ccc(-c3ccc(OC)c(CO)c3)nc2n1 [28 bp] | < 11 µM |
| C[C@H]1COCCN1c1nc(N2CCOC[C@@H]2C)c2ccc(-c3ccc(F)nc3)nc2n1 [Example 11ah] | < 11 µM |
| CNC(=O)c1ccc(-c2ccc3c(N4CCOC[C@@H]4C)nc(N4CCOC[C@@H]4C)nc3n2)cc1 [Example 11ak] | < 0.1 µM |
| C[C@H]1COCCN1c1nc(N2CCOC[C@@H]2C)c2ccc(-c3ccncc3)nc2n1 [Example 11ar] | < 11 µM |
| C[C@H]1COCCN1c1nc(N2CCOC[C@@H]2C)c2ccc(-c3ccnc(F)c3)nc2n1 [Example 11au] | < 11 µM |
| C[C@H]1COCCN1c1nc(N2CCOC[C@@H]2C)c2ccc(-c3cccc(C#N)c3)nc2n1 [Example 11aw] | < 11 µM |
| C[C@H]1COCCN1c1nc(N2CCOC[C@@H]2C)c2ccc(-c3ccc(N)cc3)nc2n1 [Example 11az] | < 0.1 µM |
| C[C@H]1COCCN1c1nc(N2CCOC[C@@H]2C)c2ccc(-c3cccc(C(=O)N4CCN(C)CC4)c3)nc2n1 [Example 11bf] | < 11 µM |
| C[C@H]1COCCN1c1nc(N2CCOC[C@@H]2C)c2ccc(-c3cccnc3)nc2n1 [Example 11bu] | < 11 µM |
| C[C@@H]1CN(c2nc(N3CCOC[C@@H]3C)c3ccc(-c4ccncc4)nc3n2)C[C@H](C)O1 [Example 11ce] | < 11 µM |
| C[C@H]1COCCN1c1nc(N2CCOC[C@@H]2C)c2ccc(-c3ccc4nc[nH]c(=O)c4c3)nc2n1 [Example 11cl] | < 11 µM |
| CC(C)Oc1ccc(-c2ccc3c(N4CCOC[C@@H]4C)nc(N4CCOC[C@@H]4C)nc3n2)cc1C(N)=O [Example 11cw, 5-[2,4-bis-((S)-3-methyl-morpholin-4-yl)-pyrido[2,3-d]pyrimidin-7-yl]-2-isopropoxy-benzamide] | < 11 µM |
| C[C@@H]1CN(c2nc(N3CCOC[C@@H]3C)c3ccc(-c4ccccc4)nc3n2)C[C@H](C)O1 [Example 11j] | < 0.3 µM |
| COc1ccc(-c2ccc3c(N4CCOC[C@@H]4C)nc(N4CCOC[C@@H]4C)nc3n2)cn1 [Example 11n] | < 0.3 µM |
| C[C@H]1COCCN1c1nc(N2CCCC(CO)C2)nc2nc(-c3cccc(C(N)=O)c3)ccc12 (some centres unmarked) [Example 12d] | < 11 µM |
| C[C@H]1COCCN1c1nc(N2CCC(c3ccncc3)CC2)nc2nc(-c3ccc(N)nc3)ccc12 [Example 12e] | < 11 µM |
| C[C@H]1COCCN1c1nc(N2CCC(CO)CC2)nc2nc(-c3cccc(C(N)=O)c3)ccc12 [Example 12h] | < 11 µM |
| C[C@H]1COCCN1c1nc(N2CCOC[C@@H]2C)c2ccc(-c3cccc(C(=O)NCC(F)(F)F)c3)nc2n1 [Example 13f] | < 11 µM |
| C[C@H]1COCCN1c1nc(N2CCOC[C@@H]2C)c2ccc(-c3cccc(C(=O)N4CC[C@@H](O)C4)c3)nc2n1 [Example 13g] | < 11 µM |
| CCN(C)C(=O)c1cc(-c2ccc3c(N4CCOC[C@@H]4C)nc(N4CCOC[C@@H]4C)nc3n2)ccc1OC [Example 13u] | < 11 µM |
| C[C@H]1COCCN1c1nc(N2CCOC[C@@H]2C)c2ccc(-c3ccc(F)c(CNCCF)c3)nc2n1 [Example 14ab] | < 11 µM |
| COCCN(C)Cc1cc(-c2ccc3c(N4CCOC[C@@H]4C)nc(N4CCOC[C@@H]4C)nc3n2)ccc1F [Example 14aj] | < 11 µM |
| COc1ccc(-c2ccc3c(N4CCOC[C@@H]4C)nc(N4CCOC[C@@H]4C)nc3n2)cc1CNC1CC1 [Example 14al] | < 0.1 µM |
| COc1ccc(-c2ccc3c(N4CCOCC4C)nc(N4CCOC[C@@H]4C)nc3n2)cc1CNC1CCOCC1 (some centres unmarked) [Example 14aq] | < 0.1 µM |
| COc1ccc(CCNCc2cc(-c3ccc4c(N5CCOCC5C)nc(N5CCOC[C@@H]5C)nc4n3)ccc2OC)cc1 (some centres unmarked) [Example 14bd] | < 0.1 µM |
| COc1ccc(-c2ccc3c(N4CCOCC4C)nc(N4CCOC[C@@H]4C)nc3n2)cc1CNC1CCCCCCC1 (some centres unmarked) [Example 14bf] | < 0.1 µM |
| C[C@H]1COCCN1c1nc(N2CCOC[C@@H]2C)c2ccc(-c3cccc(CS(C)(=O)=O)c3)nc2n1 [Example 14t] | < 11 µM |
| C[C@H]1COCCN1c1nc(N2CCOC[C@@H]2C)c2ccc(-c3ccc(F)c(CNC4CC4)c3)nc2n1 [Example 14v] | < 11 µM |
| CC(C)C(=O)NCc1cccc(-c2ccc3c(N4CCOC[C@@H]4C)nc(N4CCOC[C@@H]4C)nc3n2)c1 [Example 15d] | < 11 µM |
| CC(C)CC(=O)NCc1cccc(-c2ccc3c(N4CCOC[C@@H]4C)nc(N4CCOC[C@@H]4C)nc3n2)c1 [Example 15f] | < 11 µM |

Same assay, conditions: Homo sapiens; MDA-MB-468 cells, 2 hours; read-out: IC50, phospho-Ser473 Akt assay (cellular IC50, measured by pAkt)

| SMILES | IC50 |
| --- | --- |
| C[C@H]1COCCN1c1nc(N2CCOC[C@@H]2C)c2ccc(-c3ccc4c(c3)C(=O)NCCN4)nc2n1 [Example 11df, 7-[2,4-bis-((S)-3-methyl-morpholin-4-yl)-pyrido[2,3-d]pyrimidin-7-yl]-1,2,3,4-tetrahydro-benzo[e][1,4]diazepin-5-one] | 0.381 µM |
| C[C@H]1COCCN1c1nc(N2CCOC[C@@H]2C)c2ccc(-c3cccc(N)c3)nc2n1 [Example 11dr, 3-[2,4-Bis-((S)-3-methyl-morpholin-4-yl)-pyrido[2,3-d]pyrimidin-7-yl]-phenylamine] | 0.0141 µM |
| C[C@H]1COCCN1c1nc(N2CCOC[C@@H]2C)c2ccc(-c3ccc4[nH]nc(N)c4c3)nc2n1 [Example 11ds, 5-[2,4-Bis-((S)-3-methyl-morpholin-4-yl)-pyrido[2,3-d]pyrimidin-7-yl]-1H-indazol-3-ylamine] | 0.0607 µM |

Same assay, conditions: Homo sapiens; MDA-MB-468 cells, compounds of Formula I(B); read-out: IC50 values against mTOR (phospho-Ser473 Akt assay)

| SMILES | IC50 |
| --- | --- |
| COc1ccc(-c2ccc3c(N4CCOC[C@@H]4C)nc(N4CCOC[C@@H]4C)nc3n2)cc1CO [Example 11a] | < 0.1 µM |
| CNC(=O)c1cccc(-c2ccc3c(N4CCOC[C@@H]4C)nc(N4CCOC[C@@H]4C)nc3n2)c1 [Example 11ap] | < 0.1 µM |
